Data taken from ChEMBL document CHEMBL1201862, “PubChem BioAssay data set” (2004).
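Interpolation was linear, between the two tested concentrations surrounding the appropriate level; five concentrations were tested over 48 hours in 96-well plates. Here, GI50 denotes the concentration required for 50% inhibition of growth.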 The source made the active and inactive calls. Rule as the data show it: active = GI50 up to about 1.1 µM and inactive = higher.

How the values were obtained:
Assay in all cases: DTP human tumour cell line panel, 48 h
PC-3 = tested on: PC-3
SNB-19 = tested on: SNB-19
TK-10 = tested on: TK-10
A549 = tested on: A549
HL-60 = tested on: HL-60
UACC-62 = tested on: UACC-62
SNB-75 = tested on: SNB-75
A498 = tested on: A498
U-251 = tested on: U-251
M14 = tested on: M14
KM12 = tested on: KM12
OVCAR-8 = tested on: OVCAR-8
K562 = tested on: K562
SK-MEL-5 = tested on: SK-MEL-5
SF-295 = tested on: SF-295
COLO 205 = tested on: COLO 205
SF-268 = tested on: SF-268
LOX IMVI = tested on: LOX IMVI
786-0 = tested on: 786-0
CAKI-1 = tested on: CAKI-1

| SMILES | GI50 (PC-3) | GI50 (SNB-19) | GI50 (TK-10) | GI50 (A549) | GI50 (HL-60) | GI50 (UACC-62) | GI50 (SNB-75) | GI50 (A498) | GI50 (U-251) | GI50 (M14) | GI50 (KM12) | GI50 (OVCAR-8) | GI50 (K562) | GI50 (SK-MEL-5) | GI50 (SF-295) | GI50 (COLO 205) | GI50 (SF-268) | GI50 (LOX IMVI) | GI50 (786-0) | GI50 (CAKI-1) |
| --- | --- | --- | --- | --- | --- | --- | --- | --- | --- | --- | --- | --- | --- | --- | --- | --- | --- | --- | --- | --- |
| COC(=O)C1=C(C(=O)OC)SC2(S1)C(C(=O)OC)=C(C(=O)OC)Sc1c2ss/c1=N\c1ccc(Cl)cc1 | 0.44 µM (active) | 1.53 µM (inactive) | 1.4 µM (inactive) | 1.56 µM (inactive) | 1.11 µM (active) | 1.19 µM (inactive) | 1.07 µM (active) | 1.77 µM (inactive) | 1.35 µM (inactive) | 1.43 µM (inactive) | 0.767 µM (active) | 1.32 µM (inactive) | 1.31 µM (inactive) | 1.39 µM (inactive) | 2.19 µM (inactive) | 0.774 µM (active) | 1.13 µM (inactive) | 0.339 µM (active) | 0.516 µM (active) | 0.733 µM (active) |
| Nc1nc(=O)c(/N=N/c2ccc([As](=O)(O)O)cc2)c(N)[nH]1 | > 100 µM (inactive) | > 100 µM (inactive) | > 100 µM (inactive) | > 100 µM (inactive) | > 100 µM (inactive) | > 100 µM (inactive) | > 100 µM (inactive) | > 100 µM (inactive) | > 100 µM (inactive) | > 100 µM (inactive) | > 100 µM (inactive) | > 100 µM (inactive) | > 100 µM (inactive) | > 100 µM (inactive) | > 100 µM (inactive) | > 100 µM (inactive) | > 100 µM (inactive) | > 100 µM (inactive) | > 100 µM (inactive) | > 100 µM (inactive) |
| COc1cc(CC(C)NC(C)=O)cc(OC)c1 (stereo not given) | > 100 µM (inactive) | > 100 µM (inactive) | > 100 µM (inactive) | > 100 µM (inactive) | > 100 µM (inactive) | > 100 µM (inactive) | 34.4 µM (inactive) | > 100 µM (inactive) | > 100 µM (inactive) | > 100 µM (inactive) | > 100 µM (inactive) | > 100 µM (inactive) | > 100 µM (inactive) | > 100 µM (inactive) | > 100 µM (inactive) | > 100 µM (inactive) | > 100 µM (inactive) | > 100 µM (inactive) | > 100 µM (inactive) | > 100 µM (inactive) |
| CC1=C(Br)C(=O)c2c(O)ccc(O)c2C1=O | 1.41 µM (inactive) | 1.72 µM (inactive) | 1.26 µM (inactive) | 1.89 µM (inactive) | 0.0306 µM (active) | 0.71 µM (active) | 1.51 µM (inactive) | 1.7 µM (inactive) | 1.5 µM (inactive) | 0.431 µM (active) | 1.57 µM (inactive) | 0.481 µM (active) | 0.133 µM (active) | 0.435 µM (active) | 1.67 µM (inactive) | 0.187 µM (active) | 1.99 µM (inactive) | 0.55 µM (active) | 0.19 µM (active) | 0.282 µM (active) |
| CC(=O)OC(OC(C)=O)c1c2ccccc2cc2ccccc12 | 3.59 µM (inactive) | 14.8 µM (inactive) | 20.4 µM (inactive) | 19.1 µM (inactive) | 23.7 µM (inactive) | 15.9 µM (inactive) | 17.3 µM (inactive) | 17.7 µM (inactive) | 5.98 µM (inactive) | 20.5 µM (inactive) | 6.93 µM (inactive) | 15.5 µM (inactive) | 3.56 µM (inactive) | 11.9 µM (inactive) | 20.7 µM (inactive) | 17.8 µM (inactive) | 18.4 µM (inactive) | 4.35 µM (inactive) | 20.3 µM (inactive) | 30.5 µM (inactive) |
| CC1=CC(=O)c2ccc(C)cc2C1=O [CHIMAPHILIN] | 11.6 µM (inactive) | 16.1 µM (inactive) | 19 µM (inactive) | 15.9 µM (inactive) | 1.98 µM (inactive) | 8.18 µM (inactive) | > 10 µM (inactive) | 17.6 µM (inactive) | 11.5 µM (inactive) | 16.3 µM (inactive) | 5.96 µM (inactive) | 10.6 µM (inactive) | 3.65 µM (inactive) | 3.82 µM (inactive) | 17.2 µM (inactive) | 16.3 µM (inactive) | 14.3 µM (inactive) | 5.09 µM (inactive) | 19.7 µM (inactive) | 5.78 µM (inactive) |
| CC1(C)CC(=O)c2c(nc3ccc4ccccc4c3c2-c2ccc(NC(=O)CCCC(=O)Nc3ccc(-c4c5c(nc6ccc7ccccc7c46)CC(C)(C)CC5=O)cc3)cc2)C1 | > 100 µM (inactive) | > 100 µM (inactive) | > 100 µM (inactive) | > 100 µM (inactive) | 5.94 µM (inactive) | > 100 µM (inactive) | 41.6 µM (inactive) | > 100 µM (inactive) | > 100 µM (inactive) | > 100 µM (inactive) | > 100 µM (inactive) | > 100 µM (inactive) | > 100 µM (inactive) | > 100 µM (inactive) | > 100 µM (inactive) | > 100 µM (inactive) | > 100 µM (inactive) | > 100 µM (inactive) | > 100 µM (inactive) | > 100 µM (inactive) |
| Nc1nc(N)c2ncn(Cc3ccccc3CO)c2n1 | > 100 µM (inactive) | > 100 µM (inactive) | > 100 µM (inactive) | > 100 µM (inactive) | > 100 µM (inactive) | > 100 µM (inactive) | > 100 µM (inactive) | > 100 µM (inactive) | > 100 µM (inactive) | > 100 µM (inactive) | > 100 µM (inactive) | > 100 µM (inactive) | > 100 µM (inactive) | > 100 µM (inactive) | > 100 µM (inactive) | > 100 µM (inactive) | > 100 µM (inactive) | > 100 µM (inactive) | > 100 µM (inactive) | > 100 µM (inactive) |
| CCOC(=O)c1ccc(/N=C2\SC(=S)N(c3ccc(F)cc3)\C2=N/c2ccc(C(=O)OCC)cc2)cc1 | 13.5 µM (inactive) | 65.2 µM (inactive) | 18.9 µM (inactive) | 41 µM (inactive) | 5.78 µM (inactive) | 8.07 µM (inactive) | 20.2 µM (inactive) | > 100 µM (inactive) | 20.6 µM (inactive) | 6.75 µM (inactive) | 24.8 µM (inactive) | 7.53 µM (inactive) | 12.3 µM (inactive) | 10.5 µM (inactive) | 48.3 µM (inactive) | 19.3 µM (inactive) | 7.4 µM (inactive) | 5.73 µM (inactive) | 17.1 µM (inactive) | 21.9 µM (inactive) |
| Cc1ccc(C)c(C2NC(=O)c3ccccc3N2)c1 (stereo not given) | 1.06 µM (active) | 2.1 µM (inactive) | 6.82 µM (inactive) | 1.79 µM (inactive) | 0.118 µM (active) | 1.31 µM (inactive) | 0.423 µM (active) | 3.62 µM (inactive) | 1.21 µM (inactive) | 0.719 µM (active) | 2.99 µM (inactive) | 4.31 µM (inactive) | 0.274 µM (active) | 0.335 µM (active) | 1.12 µM (inactive) | 0.703 µM (active) | 3.27 µM (inactive) | 2.05 µM (inactive) | 1.76 µM (inactive) | 3.27 µM (inactive) |
| CC(C)(C)OC(=O)NC(Cc1ccc([N+](=O)[O-])cc1)C(=O)NC(CCCCNC(=O)OCc1ccccc1)C(=O)ON1C(=O)CCC1=O (stereo not given) | 52.5 µM (inactive) | > 100 µM (inactive) | > 100 µM (inactive) | > 100 µM (inactive) | 78.3 µM (inactive) | > 100 µM (inactive) | > 100 µM (inactive) | > 100 µM (inactive) | > 100 µM (inactive) | 70.3 µM (inactive) | > 100 µM (inactive) | > 100 µM (inactive) | 14.4 µM (inactive) | > 100 µM (inactive) | 40 µM (inactive) | > 100 µM (inactive) | 44.2 µM (inactive) | 28.8 µM (inactive) | > 100 µM (inactive) | > 100 µM (inactive) |
| NCCCN(CCCCN(CCCN)C(=O)OCc1ccccc1)C(=O)OCc1ccccc1 | 45.8 µM (inactive) | 81.8 µM (inactive) | > 100 µM (inactive) | > 100 µM (inactive) | 29.8 µM (inactive) | 71.4 µM (inactive) | 56.8 µM (inactive) | > 100 µM (inactive) | > 100 µM (inactive) | > 100 µM (inactive) | > 100 µM (inactive) | > 100 µM (inactive) | 37.9 µM (inactive) | > 100 µM (inactive) | > 100 µM (inactive) | > 100 µM (inactive) | 35.3 µM (inactive) | 39.8 µM (inactive) | > 100 µM (inactive) | > 100 µM (inactive) |
| CC1=C(C(=O)Nc2ccccc2)C2(CCCCC2)C(C#N)=C(SCC(=O)Nc2ccc(Br)cc2)N1 | 2.88 µM (inactive) | 6.49 µM (inactive) | 6.58 µM (inactive) | 3.77 µM (inactive) | 3.18 µM (inactive) | 6.85 µM (inactive) | 8.51 µM (inactive) | 4.56 µM (inactive) | 4.51 µM (inactive) | 3.61 µM (inactive) | 3.2 µM (inactive) | 5.58 µM (inactive) | 3.34 µM (inactive) | 3.46 µM (inactive) | 4.2 µM (inactive) | 2.11 µM (inactive) | 2.2 µM (inactive) | 3.43 µM (inactive) | 4.1 µM (inactive) | 4.76 µM (inactive) |
